Measurements as given in patent US20220354840A1, “NICOTINE POUCH” (Enorama Pharma AB, priority 2019, published 2022).
Read-outs that look alike come from different tables or passages of the source.

Assays:
[1] = cited from earlier work
[2] = Stability study: degradation products by HPLC-UV; assay type: physicochemical; settings: pre-stressed sample, elevated temperature and light
Experimental: • nicotine release at 30 min • degradation product Pouch samples from Example 1 were stored in a plastic container with closed (but not hermetically sealed) lid at 21-22° C./60-62% RH for up to 3 months. The release of nicotine at 30 min for the pouch product stored for 1 month at 21-22° C./60-62% RH was analyzed, using the UV spectrophotometrical method described above.
Pouch samples from Example 1 were also analyzed for the detection of potential degradation products, using HPLC-UV method (Agilent 1200 series HPLC). Samples with the same excipients but without the nicotine API and samples with the nicotine API was used to identify reference (blank) peaks. A pre-stressed sample of nicotine was prepared (using elevated temperature and light) to reveal any peaks originating from heat- and light-induced degradation of nicotine. […] The obtained peaks in the chromatogram corresponds to nicotine or solvent injection peak. The chromatogram from the HPLC-UV analysis of pre-stressed sample of nicotine (FIG. 5A), which was compared to the chromatogram of nicotine bitartrate dihydrate spiked into the reference sample without API (FIG. 5B).

Row | Compound | Solubility in water (descriptive) [1] | also measured
1 | CC1=CC(=O)NS(=O)(=O)O1 [Acesulfame K, Acesulfame potassium] | High solubility: | Solubility in water ([1]; at 20° C.): 270 mg/ml at 20 °C
2 | OC[C@@H](O)[C@H](O)[C@@H](O)CO [Xylitol] | Very soluble | 
3 | OC[C@@H](O)[C@@H](O)[C@H](O)[C@H](O)CO [D-Mannitol] | Very soluble | Solubility in water ([1]; at 25° C.): 216 mg/ml at 25 °C
4 | CC(C)[C@@H]1CC[C@@H](C)C[C@H]1O [L-Menthol] | Low soluble | 
5 | CN1CCCC1c1cccnc1 (centres unmarked) [nicotine] |  | peaks from potential degradation products (HPLC-UV) [2]: No additional peaks from potential degradation products
6 | CC(O)CO (centres unmarked) [Propylene glycol] | Soluble | 
